For the experiment, the target named is T1, PPARγ (Homo sapiens, UniProt P37231).
T1 construct: made in house
T1 sequence (P37231 1-505): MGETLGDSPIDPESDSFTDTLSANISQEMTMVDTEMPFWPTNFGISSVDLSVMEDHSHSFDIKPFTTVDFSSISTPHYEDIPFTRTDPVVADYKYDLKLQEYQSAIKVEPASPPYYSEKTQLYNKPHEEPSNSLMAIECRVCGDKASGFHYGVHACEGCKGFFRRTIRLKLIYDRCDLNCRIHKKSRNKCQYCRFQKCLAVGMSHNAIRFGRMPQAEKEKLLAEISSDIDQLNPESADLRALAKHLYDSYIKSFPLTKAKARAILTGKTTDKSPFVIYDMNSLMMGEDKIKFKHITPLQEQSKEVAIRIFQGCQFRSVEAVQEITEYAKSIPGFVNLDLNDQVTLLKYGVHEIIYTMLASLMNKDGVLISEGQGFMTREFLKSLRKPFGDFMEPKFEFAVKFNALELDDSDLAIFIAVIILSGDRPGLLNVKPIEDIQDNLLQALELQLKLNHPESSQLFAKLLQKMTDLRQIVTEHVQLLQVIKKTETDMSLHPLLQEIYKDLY
Briefly: PPARγ ligand binding assay utilizing [3H]-BRL 49653 as the radioligand. The settings on record: concentration required to reduce by 50% the specific binding of [3H]-BRL 49653. From the text: The compounds of the present invention can be evaluated for modulation of the PPARγ receptor using assays such as those described in Jiang, et al., Nature 391:82-86 (1998), Ricote, et al., Nature 391:79-82 (1998) and Lehmann, et al., J. Biol. Chem. 270(12): 12953-12956 (1995). Alternatively, the compounds can be evaluated for their ability to displace radiolabeled BRL 49653 from a PPARγ-GST fusion protein as follows:
PPARγ-GST fusion protein (prepared according to standard procedures), [^3H]—BRL 49653 having 50 Ci/mmol specific activity, Polyfiltronics Unifilter 350 filtration plate and glutathione-Sepharose® beads (from Pharmacia: washed twice with 10× binding buffer in which BSA and DTI can be left out).
Binding buffer (10 mM Tris-HCl, pH 8.0, 50 mM KCI, 10 mM DTT, 0.02% BSA and 0.01% NP-40) is added in 80-μL amounts to the wells of the filtration plate. The test compound is then added in 10 μL of DMSO. The PPARγ-GST fusion protein and radiolabeled BRL compound are premixed in binding buffer containing 10 mM DTT and added in 10-μL amounts to the wells of the plate to provide final concentrations of 1 μg/well of PPARγ-GST fusion protein and 10 nM [^3H]—BRL 49653 compound. The plate is incubated for 15 min. Glutathione-agarose bead is added in 50 μL of binding buffer, and the plate is vigorously shaken for one hour. The plate is washed four times with 200 μL/well of binding buffer (without BSA and DTT). The bottom of the plate is sealed and 200 μL/well of scintillation cocktail is added. The top of the plate is then sealed and the radioactivity is determined.
IC50 values are defined as the concentration of test compounds required to reduce by 50% the specific binding of [^3H]—BRL 49653 and are represented by (+) <30 μM; (++) <10 μM; (+++) <1 μM.
Take `O=S(=O)(Nc1cc(Oc2nc3cc(Cl)ccc3s2)cc(Oc2nc3cc(Cl)ccc3s2)c1)c1ccc(C(F)(F)F)cc1Cl` [Compound 322, N-[3,5-Bis-(5-chloro-benzothiazol-2-yloxy)-phenyl]-2-chloro-4-trifluoromethyl-benzenesulfonamide]: the IC50 (in general, the concentration that gives 50% inhibition) lay in the range of 1 to 10 µM.
The compound `N#Cc1ccc2sc(Oc3cc(Cl)cc(NS(=O)(=O)c4ccc(C(F)(F)F)cc4Cl)c3)nc2c1` [Compound 286, 2-Chloro-N-[3-chloro-5-(5-cyano-benzothiazol-2-yloxy)-phenyl]-4-trifluoromethyl-benzenesulfonamide] had an IC50 of 1 to 10 µM.
Consider `Cc1cc(S(=O)(=O)Nc2cc(Cl)cc(Oc3nc4c(Cl)cccc4s3)c2)c(Cl)cc1Cl` [Compound 292, 2,4-Dichloro-N-[3-chloro-5-(4-chloro-benzothiazol-2-yloxy)-phenyl]-5-methyl-benzenesulfonamide], for which the IC50 fell in the range of 1 to 10 µM.
Consider `Cc1cc(S(=O)(=O)Nc2cc(Cl)c(Oc3nc4c(Cl)cccc4s3)c(Cl)c2)c(Cl)cc1Cl` [Compound 426, 2,4-Dichloro-N-[3,5-dichloro-4-(4-chloro-benzothiazol-2-yloxy)-phenyl]-5-methyl-benzenesulfonamide], for which the IC50 is less than 1 µM.
Consider `Cc1ccc2nc(Oc3cc(Cl)cc(NS(=O)(=O)c4ccc(Cl)cc4Cl)c3)sc2c1` [Compound 300, 2,4-Dichloro-N-[3-chloro-5-(6-methyl-benzothiazol-2-yloxy)-phenyl]-benzenesulfonamide], for which the IC50 was less than 1 µM.
As for `COc1ccc(OC)c(S(=O)(=O)Nc2cc(Cl)cc(Oc3nc4cc(Cl)ccc4s3)c2)c1` [Compound 502, N-[3-Chloro-5-(5-chloro-benzothiazole-2-yloxy)-phenyl]-2,5-dimethoxybenzenesulfonamide], the figure is greater than 30 µM; as for `O=S(=O)(Nc1cc(Cl)c(Cc2cnc3ccccc3c2)c(Cl)c1)c1ccc(C(F)(F)F)cc1Cl` [Compound 231, 2-Chloro-N-(3,5-dichloro-4-quinolin-3-ylmethyl-phenyl)-4-trifluoromethyl-benzenesulfonamide], less than 1 µM.
For `O=S(=O)(Nc1cc(Cl)c(Sc2cnc3ccccc3c2)c(Cl)c1)c1ccccc1` [Compound 4.2], the IC50 is less than 1 µM.
To `O=S(=O)(Nc1cc(Cl)cc(Oc2nc3c(Cl)cccc3s2)c1)c1ccc(C(F)(F)F)cc1Cl` [Compound 290, 2-Chloro-N-[3-chloro-5-(4-chloro-benzothiazol-2-yloxy)-phenyl]-4-trifluoromethyl-benzenesulfonamide] belongs 10 to 30 µM; to `O=S(=O)(Nc1cc(Cl)c(Sc2cnc3ccccc3c2)c(Cl)c1)c1ccc(C(F)(F)F)cc1Cl` [Compound 4.3], less than 1 µM.
For `CCOC(=O)c1ccc2nc(Oc3cc(Cl)cc(NS(=O)(=O)c4ccc(C(F)(F)F)cc4Cl)c3)sc2c1` [Compound 310, 2-[3-Chloro-5-(2-chloro-4-trifluoromethyl-benzenesulfonylamino)-phenoxy]-benzothiazole-6-carboxylic acid ethyl ester], the IC50 was less than 1 µM.
`Cc1ccc2nc(Oc3cc(Cl)cc(NS(=O)(=O)c4cc(C)c(Cl)cc4Cl)c3)sc2c1` [Compound 301, 2,4-Dichloro-N-[3-chloro-5-(6-methyl-benzothiazol-2-yloxy)-phenyl]-5-methyl-benzenesulfonamide] registered an IC50 of less than 1 µM.
As for `Cc1cc(S(=O)(=O)Nc2cc(Cl)cc(Cc3nc4cc(Cl)ccc4s3)c2)c(Cl)cc1Cl` [Compound 333, 2,4-Dichloro-N-[3-chloro-5-(5-chloro-benzothiazol-2-ylmethyl)-phenyl]-5-methyl-benzenesulfonamide], the figure is less than 1 µM; as for `CS(=O)(=O)Nc1ccc2nc(Oc3ccc(NS(=O)(=O)c4ccc(C(F)(F)F)cc4Cl)cc3Cl)sc2c1` [Compound 444, 2-Chloro-N-[3-chloro-4-(6-methanesulfonylamino-benzothiazol-2-yloxy)-phenyl]-4-trifluoromethyl-benzenesulfonamide], less than 1 µM.
Compound `O=S(=O)(Nc1cc(Cl)c(Oc2nc3ccc(Cl)cc3s2)c(Cl)c1)c1ccc(Br)cc1OC(F)(F)F` [Compound 433, 4-Bromo-N-[3,5-dichloro-4-(6-chloro-benzothiazol-2-yloxy)-phenyl]-2-trifluoromethoxy-benzenesulfonamide] came in with an IC50 of less than 1 µM.
The compound `O=S(=O)(Nc1cc(Cl)c(Oc2nc3c(Cl)cccc3s2)c(Cl)c1)c1ccc(Cl)cc1Cl` [Compound 425, 2,4-Dichloro-N-[3,5-dichloro-4-(4-chloro-benzothiazol-2-yloxy)-phenyl]-benzenesulfonamide] had an IC50 of 1 to 10 µM.
Compound `O=S(=O)(Nc1cc(Cl)cc(Oc2nc3ccc(Cl)cc3s2)c1)c1ccc(Cl)cc1Cl` [Compound 303, 2,4-Dichloro-N-[3-chloro-5-(6-chloro-benzothiazol-2-yloxy)-phenyl]-benzenesulfonamide] returned an IC50 of less than 1 µM.
`O=[N+]([O-])c1ccc2nc(Oc3c(Cl)cc(NS(=O)(=O)c4ccc(C(F)(F)F)cc4Cl)cc3Cl)sc2c1` [Compound 438, 2-Chloro-N-[3,5-dichloro-4-(6-nitro-benzothiazol-2-yloxy)-phenyl]-4-trifluoromethyl-benzenesulfonamide] registered an IC50 of less than 1 µM.
`Cc1cccc2sc(Oc3c(Cl)cc(NS(=O)(=O)c4ccc(C(F)(F)F)cc4Cl)cc3Cl)nc12` [Compound 505, 2-Chloro-N-[3,5-dichloro-4-(4-methyl-benzothiazol-2-oxy)-phenyl]-4-trifluoromethylbenzenesulfonamide]: the IC50 was in the range of 10 to 30 µM.
Regarding `COc1cccc2sc(Oc3c(Cl)cc(NS(=O)(=O)c4cc(C)c(Cl)cc4Cl)cc3Cl)nc12` [Compound 429, 2,4-Dichloro-N-[3,5-dichloro-4-(4-methoxy-benzothiazol-2-yloxy)-phenyl]-5-methyl-benzenesulfonamide], the concentration for half-maximal inhibition (IC50) is less than 1 µM.
As for `O=S(=O)(Nc1cc(Cl)c(Cc2ccc3ccccc3n2)c(Cl)c1)c1ccc(Cl)cc1Cl` [Compound 225, 2,4-Dichloro-N-(3,5-dichloro-4-quinolin-2-ylmethyl-phenyl)-benzenesulfonamide], the figure is less than 1 µM.
To `O=S(=O)(Nc1cc(Cl)c(Oc2nc3ccc(Cl)cc3s2)c(Cl)c1)c1ccc(OC(F)(F)F)cc1` [Compound 434, N-[3,5-Dichloro-4-(6-chloro-benzothiazol-2-yloxy)-phenyl]-4-trifluoromethoxy-benzenesulfonamide] belongs 1 to 10 µM; to `Cc1cccc2sc(Oc3ccc(NS(=O)(=O)c4ccc(C(F)(F)F)cc4Cl)cc3Cl)nc12` [Compound 504, 2-Chloro-N-[3-chloro-4-(4-methyl-benzothiazol-2-oxy)-phenyl]-4-trifluoromethylbenzenesulfonamide], 10 to 30 µM.
`O=S(=O)(Nc1cc(Cl)c(Cc2ccc3ccccc3n2)c(Cl)c1)c1ccc(C(F)(F)F)cc1Cl` [Compound 224, 2-Chloro-N-(3,5-dichloro-4-quinolin-2-ylmethyl-phenyl)-4-trifluoromethyl-benzenesulfonamide] returned an IC50 of less than 1 µM.
`CS(=O)(=O)c1ccc2nc(Oc3ccc(NS(=O)(=O)c4ccc(C(F)(F)F)cc4Cl)cc3Cl)sc2c1` [Compound 445, 2-Chloro-N-[3-chloro-4-(6-methanesulfonyl-benzothiazol-2-yloxy)-phenyl]-4-trifluoromethyl-benzenesulfonamide]: the IC50 is less than 1 µM.

The values above are taken from patent US7960408B2, “Quinolinyl and benzothiazolyl modulators” (Amgen Inc., priority 2000, dated 2011).
